Assay results as given in article PMC6692079 (Journal of medicinal chemistry, 2018).
“Also recorded” adds a separate entry of the source. Structures can show the parent of a compound that is named as a salt. Where two headings read alike, the source gives them in different places.

How the values were obtained:
human κ opioid receptor [1] = molecular target: T1, human κ opioid receptor (Homo sapiens, UniProt P41145); test: biochemical; format: biochemical; conditions: for δ/κ: selectivity for κ relative to δ
T1 sequence (P41145 whole entry): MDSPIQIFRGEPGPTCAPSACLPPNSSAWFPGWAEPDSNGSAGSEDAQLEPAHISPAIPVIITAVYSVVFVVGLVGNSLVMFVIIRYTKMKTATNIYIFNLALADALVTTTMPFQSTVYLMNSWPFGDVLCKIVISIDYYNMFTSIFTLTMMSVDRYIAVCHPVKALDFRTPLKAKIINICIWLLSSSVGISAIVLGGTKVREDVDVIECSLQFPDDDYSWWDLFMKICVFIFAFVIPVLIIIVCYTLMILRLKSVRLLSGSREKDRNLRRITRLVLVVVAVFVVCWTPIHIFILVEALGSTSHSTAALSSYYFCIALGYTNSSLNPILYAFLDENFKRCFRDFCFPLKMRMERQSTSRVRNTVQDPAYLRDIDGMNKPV

human δ opioid receptor [2] = molecular target: T2, human δ opioid receptor (Homo sapiens, UniProt P41143); test: biochemical
T2 sequence (P41143 whole entry): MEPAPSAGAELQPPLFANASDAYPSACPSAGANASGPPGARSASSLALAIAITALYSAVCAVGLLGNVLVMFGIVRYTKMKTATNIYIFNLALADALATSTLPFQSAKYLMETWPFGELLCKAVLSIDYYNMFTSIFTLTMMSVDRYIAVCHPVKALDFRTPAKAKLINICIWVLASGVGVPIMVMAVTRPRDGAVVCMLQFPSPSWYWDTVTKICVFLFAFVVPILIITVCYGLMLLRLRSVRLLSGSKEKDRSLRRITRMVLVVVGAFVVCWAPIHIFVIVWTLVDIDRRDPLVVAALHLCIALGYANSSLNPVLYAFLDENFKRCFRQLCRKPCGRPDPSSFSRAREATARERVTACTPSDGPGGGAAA

human δ opioid receptor [3] = molecular target: T2, human δ opioid receptor; conditions: cloned human receptor, cited from earlier work
human κ opioid receptor [4] = molecular target: T1, human κ opioid receptor; conditions: cloned human receptor, cited from earlier work
human μ opioid receptor [5] = molecular target: T3, human μ opioid receptor (Homo sapiens, UniProt P35372); test: biochemical
T3 sequence (P35372 whole entry): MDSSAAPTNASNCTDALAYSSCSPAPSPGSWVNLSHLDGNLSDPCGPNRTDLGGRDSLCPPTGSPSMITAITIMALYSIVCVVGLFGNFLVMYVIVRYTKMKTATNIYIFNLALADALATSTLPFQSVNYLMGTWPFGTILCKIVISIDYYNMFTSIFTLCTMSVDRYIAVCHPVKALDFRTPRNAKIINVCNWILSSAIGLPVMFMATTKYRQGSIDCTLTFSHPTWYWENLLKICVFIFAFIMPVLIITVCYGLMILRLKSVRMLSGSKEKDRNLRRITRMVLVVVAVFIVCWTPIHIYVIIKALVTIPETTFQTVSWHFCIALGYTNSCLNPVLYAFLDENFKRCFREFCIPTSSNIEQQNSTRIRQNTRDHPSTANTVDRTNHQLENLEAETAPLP

[6] = Pharmacokinetics in plasma and brain after a single sc dose; format: in vivo, Male Sprague—Dawley rats; conditions: 5 mg/kg sc
human μ opioid receptor [7] = molecular target: T3, human μ opioid receptor; conditions: cloned human receptor; cited from earlier work
[8] = 5 mg/kg in male rats, cited from earlier work

Row | SMILES | δ/κ (human κ opioid receptor [1]; ratio of Ke values) | Kb (human δ opioid receptor [2]) [µM] | further results
1 | CC(C)[C@@H](CN1CCCCC1C)NC(=O)[C@H]1Cc2ccc(O)cc2CN1 (mixture of isomers) [Compound 14, (3R)-7-Hydroxy-N-{(1S)-2-methyl-1-[((2RS)-2-methylpiperidin-1-yl)methyl]propyl}−1,2,3,4-tetrahydroisoquinoline-3-carboxamide Dihydrochloride] | >199 | > 3 | 
2 | CC(C)[C@@H](CN1CCCCC1)NC(=O)[C@H]1Cc2ccc(O)cc2CN1 [Compound 1, (3R)‑7-Hydroxy‑N‑[(1S)‑2-methyl-1-(piperidin-1-ylmethyl)propyl]-1,2,3,4-tetrahydroisoquinoline-3-carboxamide] |  |  | Ke δ, DPDPE (human δ opioid receptor [3]; previously reported): >3000 nM; Ke κ, U69,593 (human κ opioid receptor [4]; previously reported): 6.80 ± 2.1 nM
3 | CC(C)[C@@H](CN1CCOCC1)NC(=O)[C@H]1Cc2ccc(O)cc2CN1 [Compound 6, (3R)-7-Hydroxy-N-[(1S)-2-methyl-1-(morpholin-4-ylmethyl)-propyl]-1,2,3,4-tetrahydroisoquinoline-3-carboxamide Dihydrochloride] |  | > 3 | 
4 | CC(C)[C@@H](CN1CCN(C)CC1)NC(=O)[C@H]1Cc2ccc(O)cc2CN1 [Compound 7, (3R)-7-Hydroxy-N-{(1S)-2-methyl-1-[(4-methylpiperizin-1-yl)-methyl]propyl}−1,2,3,4-tetrahydroisoquinoline-3-carboxamide Trihydrochloride] | >30 | > 3 | 
5 | CCN(CC)C[C@@H](NC(=O)[C@H]1Cc2ccc(O)cc2CN1)C(C)C [Compound 8, (3R)-N-{(1S)-1-[(4,4-Diethylamino)methyl]-2-methylpropyl]-7-hydroxy-1,2,3,4-tetrahydroisoquinoline-3-carboxamide Dihydrochloride] | >72 | > 3 | Kb (human μ opioid receptor [5]): 0.69 ± 0.11 µM; Kb (human κ opioid receptor [1]): 0.0418 ± 0.012 µM
6 | CC(C)CN(CC(C)C)C[C@@H](NC(=O)[C@H]1Cc2ccc(O)cc2CN1)C(C)C [Compound 10, (3R)-N-{(1S)-1-{[Bis(2-methylpropyl)amino]methyl}−2-methyl-propyl]-7-hydroxy-1,2,3,4-tetrahydroisoquinoline-3-carboxamide Dihydrochloride] |  | > 3 | 
7 | CC1CCN(C[C@@H](NC(=O)[C@H]2Cc3ccc(O)cc3CN2)C(C)C)CC1 [Compound 12, (3R)-7-Hydroxy-N-{(1S)-2-methyl-1-[(4-methylpiperidin-1-yl)-methyl]propyl}−1,2,3,4-tetrahydroisoquinoline-3-carboxamide Dihydrochloride] |  | > 3 | persistence in plasma and brain post dose ([6]; last sampling time): 168 h; clearance ([6]; plasma): 43.75 mL/min/kg; brain penetration ([6]; rats, 5 mg/kg): does indeed penetrate the brain; also recorded: crossed the blood—brain barrier; also recorded: did indeed readily penetrate the brain
8 | CC(C)[C@@H](CN1CCC(C)(C)CC1)NC(=O)[C@H]1Cc2ccc(O)cc2CN1 [Compound 18, (3R)-N-{(1S)-1-[(4,4-Dimethylpiperidin-1-yl)methyl]-2-methylpropyl}−7-hydroxy-1,2,3,4-tetrahydroisoquinoline-3-carboxamide Dihydrochloride] |  |  | Kb (human κ opioid receptor [1]): 0.00357 ± 0.0015 µM
9 | CC(C)[C@@H](CN1CCC(C(F)(F)F)CC1)NC(=O)[C@H]1Cc2ccc(O)cc2CN1 [Compound 20, (3R)-7-Hydroxy-N-[(1S)-2-methyl-1-{[4-(trifluoromethyl)-piperidin-1-yl]methyl}propyl]-1,2,3,4-tetrahydroisoquinoline-3-carboxamide Dihydrochloride] | >640 | > 3 | 
10 | COC1CCN(C[C@@H](NC(=O)[C@H]2Cc3ccc(O)cc3CN2)C(C)C)CC1 [Compound 22, (3R)-7-Hydroxy-N-{(1S)-2-methyl-1-[(4-methoxypiperidin-1-yl)-methyl]propyl}−1,2,3,4-tetrahydroisoquinoline-3-carboxamide Dihydrochloride] | >459 | > 3 | 
11 | CC(C)[C@@H](CN1CCC(N(C)C)CC1)NC(=O)[C@H]1Cc2ccc(O)cc2CN1 [Compound 23, (3R)-N-[(1S)-1-{[4-(Dimethylamino)piperidin-1-yl]methyl}−2-methylpropyl]-7-hydroxy-1,2,3,4-tetrahydroisoquinoline-3-carboxamide Trihydrochloride] | >371 | > 3 | 
12 | CC(C)[C@@H](CN1CCC(F)(F)CC1)NC(=O)[C@H]1Cc2ccc(O)cc2CN1 [Compound 24, (3R)-N-{[(1S)-1-[4,4-Difluoropiperidin-1-yl]methyl]-2-methyl-propyl}−7-hydroxy-1,2,3,4-tetrahydroisoquinoline-3-carboxamide Dihydrochloride] | >254 | > 3 | 
13 | CC(C)[C@@H](CN1CCC(C#N)CC1)NC(=O)[C@H]1Cc2ccc(O)cc2CN1 [Compound 25, (3R)-N-{(1S)-1-[(4-Cyanopiperidin-1-yl)methyl]-2-methylprolyl}−7-hydroxy-1,2,3,4-tetrahydroisoquinoline-3-carboxamide Dihydrochloride] | >236 | > 3 | 
14 | CC(C)[C@@H](CN1CCC(C(N)=O)CC1)NC(=O)[C@H]1Cc2ccc(O)cc2CN1 [Compound 26] | >932 | > 3 | 
15 | CC1CCN(C[C@@H](NC(=O)[C@H](N)Cc2ccc(O)cc2)C(C)C)CC1 [Compound 36, N-{(1S)-2-Methyl-1-[(4-methylpiperidin-1-yl)methyl]propyl}-D-ty-rosinamide Dihydrochloride] | >8 | > 3 | Kb (human μ opioid receptor [5]): > 3 µM; Kb (human κ opioid receptor [1]): 0.387 ± 0.089 µM; fold loss in κ opioid receptor antagonist potency relative to 12 (human κ opioid receptor [1]): over 1000; μ/κ (human κ opioid receptor [1]; ratio of Ke values, selectivity for κ relative to μ): >8
16 | CC(C)[C@@H](CN1CC[C@@](C)(c2cccc(O)c2)[C@@H](C)C1)NC(=O)[C@H]1Cc2ccc(O)cc2CN1C [Compound 46, reference compound] |  |  | Ke μ, DAMGO (human μ opioid receptor [7]): 210 ± 60 nM; Ke δ, DPDPE (human δ opioid receptor [3]): 491 ± 120 nM; Ke κ, U69,593 (human κ opioid receptor [4]): 0.16 ± 0.06 nM
17 | CC(C)[C@@H](CN1CC[C@@](C)(c2cccc(O)c2)[C@@H](C)C1)NC(=O)[C@H]1Cc2ccc(O)cc2CN1 [JDTic, (3R)-1,2,3,4-tetrahydro-7-hydroxy-N-[(1S)-1-[[(3R,4R)-4-(3-hydroxy-phenyl)-3,4-dimethyl-1-piperidinyl]methyl]-2-methylpropyl]-3-iso-quinolinecarboxamide] |  |  | half-life ([8]; brain): 51.8 h; half-life ([8]; plasma): 28.4 h
